According to patent US12594256B2, “A19-144, A2-73 and certain anticholinesterase inhibitor compositions and method for anti-seizure therapy” (priority 2014, dated 2026):
Like-named read-outs stand apart in the source and are kept apart here.

Assays:
[1] = Pharmacokinetics of metabolite AV19-144 in plasma after oral AV2-73 (LC-MS/MS); assay type: in vivo; conditions: for MRT: read-out: mean residence time of AV19-144
Procedure: After separation from human plasma analytes were injected into a LC-MS/MS. […] A weighted (1/x) regression 2nd order was performed to determine the concentration of the analytes. The study was conducted in accordance with the Principles of Good Laboratory Practice (GLP) as described under § 19, German Chemical Law. The validation based on the EG-Dok.

Aβ25-35-induced toxicity [2] = test: Aβ25-35 model, pre- and post-peptide administration schedules (Y maze, passive avoidance, hippocampal lipid peroxidation); assay type: in vivo, mice; conditions: for anti-amnesic and neuroprotective effect against amyloid toxicity: drug administered before or after the amyloid peptide challenge
seizures = test: Seizure prophylaxis in single subjects (Examples 1-6); assay type: in vivo, human
Procedure: A person is experiencing 4 to 7 seizures per day with a baseline of 6.6 seizures per day. A19-144 is administered daily at 2.0 mg for 5 days.
The subject is administered low dose donepezil (4 mg daily) for 5 days cotimely with continued A19-144 administration daily at 2.0 mg for 5 days.
A person is experiencing 6 to 8 seizures per day with a baseline of 6.6 seizures per day. A19-144 is administered daily at 2.0 mg for 5 days.
The subject is administered low dose Eslicarbazepine acetate at 600 mg/day; for 5 days cotimely with continued A19-144 administration daily at 2.0 mg for 5 days.
A person is experiencing seizures 3.2 per day. The subject is administered lacosamide at 60 mg two times per day for 5 days and cotimely administration of A19-144 daily at 2.0 mg for 5 days.
The person is experiencing an average of 3.3 seizures per day. The subject is administered Levetiracetam at 400 mg two times per day for 5 days and cotimely administration of 3.0 mg of A19-144 daily for 5 days.

σ1 = σ1 (Homo sapiens, UniProt Q99720); conditions: as compared with σ1 sites (so in the source); cited from earlier work
σ2 sites = σ2 sites (Homo sapiens, UniProt Q5BJF2); conditions: reported binding analyses; cited from earlier work
[3] = biological target: muscarinic M1-M4 receptors; conditions: screening profile; cited from earlier work
sodium channel site 2 = conditions: screening profile; cited from earlier work
NMDA receptors = conditions: screening profile; cited from earlier work
Aβ25-35-induced toxicity [4] = conditions: cited from earlier work
[5] = test system: muscarinic acetylcholine receptors; conditions: believed to bind; cited from earlier work
sigma-1 receptors = sigma-1 receptors (Homo sapiens, UniProt Q99720); conditions: believed to bind; cited from earlier work
[6] = 0.3 mg/kg ip once a day, day 7 to day 13 after Aβ25-35, measured 14 days after Aβ25-35
[7] = 0.1 or 0.3 mg/kg ip once a day, day -7 to day -1 before Aβ25-35, 7 days after Aβ25-35

sigma-1 receptors, sequence (Q99720 whole entry): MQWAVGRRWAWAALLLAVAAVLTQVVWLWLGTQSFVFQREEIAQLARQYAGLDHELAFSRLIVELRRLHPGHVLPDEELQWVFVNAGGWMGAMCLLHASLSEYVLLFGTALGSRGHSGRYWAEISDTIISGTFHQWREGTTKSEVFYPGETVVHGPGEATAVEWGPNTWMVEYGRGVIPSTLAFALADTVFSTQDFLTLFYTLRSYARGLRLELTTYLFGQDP
σ1, sequence (Q99720 whole entry): as above
σ2 sites, sequence (Q5BJF2 whole entry): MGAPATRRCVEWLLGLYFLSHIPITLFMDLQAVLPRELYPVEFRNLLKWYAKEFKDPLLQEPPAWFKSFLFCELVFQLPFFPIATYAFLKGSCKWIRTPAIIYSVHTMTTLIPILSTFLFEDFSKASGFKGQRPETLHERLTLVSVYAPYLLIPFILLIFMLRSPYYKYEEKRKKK

CN(C)CC1CCOC1(c1ccccc1)c1ccccc1.Cl (centres unmarked) [A2-73, 1-(2,2-diphenyltetrahydrofuran-3-yl)-N,N-dimethylmethanamine hydrochloride]
biotransformation of AV2-73 to main metabolite AV19-144 ([1]; after oral administration): rapid and extensive biotransformation
anti-amnesic and neuroprotective effect against amyloid toxicity (Aβ25-35-induced toxicity [2]): effective in pre- and post-protection
results of Examples 1 through 6 (seizure prophylaxis) (seizures; A2-73 substituted for A19-144): similarly effective
selectivity for the σ1 subtype (σ1): better selectivity for the σ1 subtype
affinity for σ2 sites (σ2 sites): no affinity
IC50 [3]: 3.3 to 5.2 µM
IC50 (sodium channel site 2): 5.1 µM
IC50 (NMDA receptors): 8 µM
Aβ25-35-induced endogenous Aβ1-42 seeding (Aβ25-35-induced toxicity [4]; reported): decreasing

CNCC1CCOC1(c1ccccc1)c1ccccc1.Cl (centres unmarked) [A19-144, 1-(2,2-diphenyltetrahydrofuran-3-yl)-N-methylmethanamine hydrochloride]
Cmax ([1]; human, oral, across the 10 to 60 mg AV2-73 dose steps, plasma, FIG. 1): 1.31 to 22.3 ng/mL
half-life ([1]; human, oral, across the 10 to 60 mg AV2-73 dose steps, plasma, FIG. 1, read-out: mean terminal elimination half-life t1/2 of AV19-144): 8.56 to 28.7 h
MRT ([1]; human, plasma, oral, after 10 mg AV2-73, FIG. 2): 14.3 h
MRT ([1]; human, plasma, oral, after 60 mg AV2-73, FIG. 2): 42.7 h
lipid peroxidation increase (Aβ25-35-induced toxicity [2]; [6]): effective
memory deficits (Aβ25-35-induced toxicity [2]; [6]): effective
Aβ25-35-induced lipid peroxidation in the hippocampus (Aβ25-35-induced toxicity [2]; [7]): blocks
Aβ25-35-induced memory deficits (spontaneous alternation in the Y maze and passive avoidance response) (Aβ25-35-induced toxicity [2]; [7]): blocks
anti-amnesic and neuroprotective effect against amyloid toxicity (Aβ25-35-induced toxicity [2]): effective in pre- and post-protection
Aβ25-35-induced toxicity and learning impairments (Aβ25-35-induced toxicity [2]; injected repeatedly one week after the peptide): able to reverse
seizures per day (seizures; Example 1: person, baseline 6.6 per day, 2.0 mg daily for 5 days, for 8 weeks post dosing): 2.2 per day
seizures per day (seizures; Example 3: person, baseline 6.6 per day, 2.0 mg daily for 5 days, for 8 weeks post dosing): 1.2 per day
seizures per day (seizures; person of Example 1, at 6 months post dosing): 2.2 per day
seizures per day (average) (seizures; person of Example 3, at 6 months post dosing): 1.2 per day
affinity for muscarinic acetylcholine receptors [5]: low micromolar range
affinity for sigma-1 receptors (sigma-1 receptors): low micromolar range
Aβ25-35-induced P-Akt decrease and P-GSK-3β increase (Aβ25-35-induced toxicity [4]; Lahmy et al. 2013): blocked
hyperphosphorylation of Tau on physiological (AT-8) and pathological (AT-100) epitopes (Aβ25-35-induced toxicity [4]; in the dose-range tested): attenuated
oxidative stress, caspases induction, cellular loss and learning and memory deficits (Aβ25-35-induced toxicity [4]; mice one week after injection of oligomeric Aβ25-35 (Villard et al. 2011)): attenuating
neuroprotection against amyloid toxicity (Aβ25-35-induced toxicity [4]; mice, reported): neuroprotective potential
